Experimental data taken from patent US20170066759A1, “AROMATIC 5-MEMBERED HETEROCYCLIC DERIVATIVE HAVING TRPV4-INHIBITING ACTIVITY” (Shionogi & Co., Ltd., priority 2012, published 2017).
pIC50: −log10 of the molar value.

target: T1, human TRPV4 (hTRPV4/CHO cells) (Homo sapiens, UniProt Q9HBA0); experiment: Test Example 1: TRPV4 inhibitory activity (IC50 value), 4α-PDD stimulation, Fluo4 calcium fluorescence (FLIPR TETRA); format: cell-based; conditions: Test Example 1, 4α-PDD stimulation, read-out: Test 1 IC50
T1 construct: expressed in transfected cells; host or cells: CHO-K1
T1 sequence (Q9HBA0 whole entry): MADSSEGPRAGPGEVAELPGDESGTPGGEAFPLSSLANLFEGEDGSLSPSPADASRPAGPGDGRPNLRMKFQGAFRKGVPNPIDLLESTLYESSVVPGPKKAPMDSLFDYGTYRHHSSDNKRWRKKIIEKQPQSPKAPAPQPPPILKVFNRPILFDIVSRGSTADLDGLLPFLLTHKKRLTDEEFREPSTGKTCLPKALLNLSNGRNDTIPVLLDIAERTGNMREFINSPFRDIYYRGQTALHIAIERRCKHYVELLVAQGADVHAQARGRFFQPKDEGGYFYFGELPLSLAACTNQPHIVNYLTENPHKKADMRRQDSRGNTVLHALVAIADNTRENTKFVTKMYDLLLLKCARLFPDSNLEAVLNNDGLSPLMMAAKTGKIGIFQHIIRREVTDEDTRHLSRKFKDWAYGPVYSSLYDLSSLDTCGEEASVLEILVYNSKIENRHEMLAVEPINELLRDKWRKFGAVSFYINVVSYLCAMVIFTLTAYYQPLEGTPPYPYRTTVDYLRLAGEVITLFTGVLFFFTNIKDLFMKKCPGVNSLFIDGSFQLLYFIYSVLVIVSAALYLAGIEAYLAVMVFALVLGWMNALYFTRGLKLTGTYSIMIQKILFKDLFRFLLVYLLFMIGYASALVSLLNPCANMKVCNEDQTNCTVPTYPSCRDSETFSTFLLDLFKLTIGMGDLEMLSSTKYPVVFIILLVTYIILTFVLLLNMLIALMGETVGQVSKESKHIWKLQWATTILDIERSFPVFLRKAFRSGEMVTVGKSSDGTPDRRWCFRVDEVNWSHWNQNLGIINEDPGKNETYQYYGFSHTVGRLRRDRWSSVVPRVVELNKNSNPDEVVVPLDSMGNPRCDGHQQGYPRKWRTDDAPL

Row | SMILES | pIC50
1 | Cc1nc(C)c(-c2csc(NC(=O)C3Cc4c([N+](=O)[O-])cc(Cl)c(Cl)c4O3)n2)s1 (stereo not shown) [Compound I-201] | > 7.00
2 | Cc1nc(C)c(-c2csc(NC(=O)C3Cc4ccc(Cl)c(Cl)c4O3)n2)s1 (stereo not shown) [Compound I-195] | > 7.00
3 | O=C(Cc1ccc(S(=O)(=O)C(F)(F)F)cc1)Nc1nc(-c2sc(CO)nc2CCCN2CCOCC2)cs1 [Compound I-377] | > 7.00
4 | COC(=O)c1cccc(CC(=O)Nc2nc(-c3sc(C)nc3C)cs2)n1 [Compound I-509] | 6.00 to 7.00
5 | Cc1nc(C)c(-c2csc(NC(=O)Cc3ccc(S(=O)(=O)N4CCOCC4)cc3)n2)s1 [Compound I-157] | 6.00 to 7.00
6 | NC(=O)OCc1nc(CO)sc1-c1csc(NC(=O)Cc2ccc(S(=O)(=O)C(F)(F)F)cc2)n1 [Compound I-373] | > 7.00
7 | CCOC(=O)c1nc(C)sc1-c1csc(NC(=O)Cc2c(F)cccc2F)n1 [Compound I-539] | > 7.00
8 | Cc1nc(C)c(-c2csc(NC(=O)Cc3ccc(NC(=O)c4ccccc4)cc3)n2)s1 [Compound I-413] | 6.00 to 7.00
9 | Cc1nc(CO)sc1-c1csc(NC(=O)C2C[C@H](C(F)(F)F)CN2C(=O)OCC(F)(F)F)n1 (stereo partly shown) [Compound I-475] | 6.00 to 7.00
10 | CC(=O)NCc1nc(C)sc1-c1csc(NC(=O)Cc2ccc(S(=O)(=O)C(F)(F)F)cc2)n1 [Compound I-471] | > 7.00
11 | O=C(Nc1nc(-c2sc(CO)nc2CO)cs1)C1CN(c2ccc(Cl)cc2)C1 [Compound I-343] | > 7.00
12 | Cc1nc(C)c(-c2nc(NC(=O)Cc3c(F)cccc3F)sc2-c2cscn2)s1 [Compound I-61] | 6.00 to 7.00
13 | Cc1nc(C)c(-c2csc(NC(=O)C3CCCN(S(=O)(=O)c4ccccc4)C3)n2)s1 (stereo not shown) [Compound I-194] | 5.10 to 6.00
14 | Cc1nc(C)c(-c2csc(NC(Cc3ccc(Cl)cc3)C(=O)N3CCN(C)CC3)n2)s1 (racemic) [II-45] | 5.10 to 6.00
15 | Cc1nc(C)c(-c2csc(NC(=O)Cc3cccc(C(=O)Nc4ccccc4F)n3)n2)s1 [Compound I-505] | > 7.00
16 | COCc1nc(C)c(-c2csc(NC(=O)Cc3ccc(S(=O)(=O)C(F)(F)F)cc3)n2)s1 [Compound I-459] | 6.00 to 7.00
17 | Cc1nc(C)c(-c2nc(NC(=O)Cc3c(F)cccc3F)sc2/C=C\c2ccccc2)s1 [Compound I-73] | 5.10 to 6.00
18 | NC(=O)c1nc(CO)c(-c2csc(NC(=O)C3CN(Cc4ccc(C(F)(F)F)cc4)C3)n2)s1 [Compound I-325] | 6.00 to 7.00
19 | Cc1nc(CO)sc1-c1csc(NC(=O)C2C[C@H](C(F)(F)F)CN2C(=O)C(F)(F)F)n1 (stereo partly shown) [Compound I-464] | 5.10 to 6.00
20 | Cc1nc(C)c(-c2csc(NC(=O)CN3CCC[C@@H](c4ccccc4)C3)n2)s1 [Compound I-183] | 6.00 to 7.00
21 | Cc1nc(C)c(-c2csc(NC(=O)C3Cc4ccccc4N3C)n2)s1 (stereo not shown) [Compound I-175] | 6.00 to 7.00
22 | Cc1nc(COC(N)=O)sc1-c1csc(NC(=O)Cc2ccc(S(=O)(=O)C(F)(F)F)cc2)n1 [Compound I-378] | 6.00 to 7.00
23 | Cc1nc(C)c(-c2csc(NC(=O)CN3CCC[C@H](c4ccccc4)C3)n2)s1 [Compound I-184] | > 7.00
24 | Cc1nc(C)c(-c2csc(NC(=O)Cn3cc(Cl)cn3)n2)o1 [Compound I-140] | 5.10 to 6.00
25 | CC(=O)Nc1nc(-c2sc(C)nc2C)cs1 [Compound I-480] | 5.10 to 6.00
26 | Cc1nc(C(C)O)sc1-c1csc(NC(=O)C2CN(c3ccc(C(F)(F)F)cc3)C2)n1 (racemic) [Compound I-467] | > 7.00
27 | Cc1nc(C)c(-c2csc(NC(=O)Cc3ccc(S(=O)(=O)N(C)c4ccccc4Cl)cc3)n2)s1 [Compound I-162] | > 7.00
28 | Cc1nc(C(C)O)sc1-c1csc(NC(=O)[C@H]2C[C@H](F)C2)n1 (mixture of isomers) [Compound I-298] | 5.10 to 6.00

Row | SMILES | pIC50
29 | Cc1nc(CO)sc1-c1csc(NC(=O)[C@@H]2C[C@@H](c3ccccc3)CN2C(=O)OC(C)C)n1 [Compound I-315] | > 7.00
30 | Cc1nc(C(C)O)c(-c2csc(NC(=O)Cc3c(F)cccc3F)n2)s1 (stereo not shown) [Compound I-130] | 6.00 to 7.00
31 | Cc1nc(CO)oc1-c1csc(NC(=O)Cc2ccc(S(=O)(=O)C(F)(F)F)cc2)n1 [Compound I-380] | 6.00 to 7.00
32 | Cc1nc(C)c(-c2nc(NC(=O)Cc3c(F)cccc3F)sc2C)s1 [Compound I-72] | 5.10 to 6.00
33 | Cc1nc(CO)sc1-c1csc(NC(=O)C2CN(S(=O)(=O)c3ccc(C(F)(F)F)cc3)C2)n1 [Compound I-306] | > 7.00
34 | Cc1nc(CO)sc1-c1csc(NC(=O)C2CN(Cc3ccc(C(F)(F)F)cc3)C2)n1 [Compound I-208] | > 7.00
35 | Cc1nc(C)c(-c2nc(NC(=O)Cc3c(F)cccc3F)sc2-c2cccc(O)c2)s1 [Compound I-70] | 5.10 to 6.00
36 | Cc1nc(C(=O)NCCO)c(-c2csc(NC(=O)Cc3c(F)cccc3F)n2)s1 [Compound I-182] | 5.10 to 6.00
37 | CCNC(=O)c1nc(C)sc1-c1csc(NC(=O)Cc2c(F)cccc2F)n1 [Compound I-181] | 5.10 to 6.00
38 | COC(=O)c1ccc(CN2CC(C(=O)Nc3nc(-c4sc(C)nc4C)cs3)C2)cc1 [Compound I-263] | 6.00 to 7.00
39 | Cc1nc(CO)sc1-c1csc(NC(=O)CN2Cc3ccccc3C2)n1 [Compound I-241] | 6.00 to 7.00
40 | O=C(CO)NCc1nc(CO)sc1-c1csc(NC(=O)Cc2ccc(S(=O)(=O)C(F)(F)F)cc2)n1 [Compound I-383] | 6.00 to 7.00
41 | COc1cc(CC(=O)Nc2nc(-c3sc(C)nc3C)cs2)cc(C(=O)Nc2ccc(C(F)(F)F)cc2)c1 [Compound I-525] | > 7.00
42 | Cc1nc(CO)sc1-c1csc(NC(=O)CC2Cc3ccccc3C2)n1 (racemic) [Compound I-239] | 6.00 to 7.00
43 | NC(=O)c1nc(CO)c(-c2csc(NC(=O)[C@H]3C[C@@H](OCc4ccc(C(F)(F)F)cc4)C3)n2)s1 [Compound I-551] | 6.00 to 7.00
44 | Cc1nc(C(=O)NCCO)sc1-c1csc(NC(=O)Cc2c(F)cccc2F)n1 [Compound I-125] | 5.10 to 6.00
45 | CCNCc1nc(CO)sc1-c1csc(NC(=O)Cc2ccc(S(=O)(=O)C(F)(F)F)cc2)n1 [Compound I-237] | 6.00 to 7.00
46 | Cc1nc(C)c(-c2csc(NC(=O)Cn3cc(Cn4cccc4)nn3)n2)s1 [Compound I-428] | 6.00 to 7.00
47 | Cc1nc(CO)sc1-c1csc(NC(=O)Cc2c(F)cccc2F)n1 [Compound I-76] | > 7.00
48 | Cc1nc(C(=N)N)sc1-c1csc(NC(=O)Cc2ccc(S(=O)(=O)C(F)(F)F)cc2)n1 [Compound I-404] | 6.00 to 7.00
49 | O=C(Nc1nc(-c2sc(CO)nc2CO)cs1)[C@H]1C[C@@H](OCc2ccccc2C(F)(F)F)C1 [Compound I-347] | 6.00 to 7.00
50 | Cc1nc(C)c(-c2csc(NC(=O)[C@H]3CC[C@@H](c4ccccc4)N3C(=O)OC(C)(C)C)n2)s1 [Compound I-211] | 6.00 to 7.00
51 | Cc1nc(C)c(-c2csc(NC(=O)[C@H]3C[C@H](c4ccccc4)CN3)n2)s1 [Compound I-192] | 5.10 to 6.00
52 | Cc1nc(CO)sc1-c1csc(NC(=O)C2CN(c3ccc(C(F)(F)F)cc3)C2)n1 [Compound I-369] | > 7.00
53 | Cc1nc(CN2NCCC2=O)c(-c2csc(NC(=O)Cc3ccc(S(=O)(=O)C(F)(F)F)cc3)n2)s1 [Compound I-487] | 6.00 to 7.00
54 | Cc1nc(CO)sc1-c1csc(NC(=O)C2CC(N3CCC(F)(F)C3)C2)n1 (stereo not shown) [Compound I-362] | 5.10 to 6.00
55 | Cc1nc(C(F)F)sc1-c1csc(NC(=O)C2CCC(C(F)(F)F)CC2)n1 (stereo not shown) [Compound I-543] | 6.00 to 7.00
